Test results reported in ChEMBL document CHEMBL2417438, “Preparation and antitrypanosomal activity of secochiliolide acid derivatives” (Bioorg Med Chem Lett, 2013).
In brackets after ≈: the same amount, converted by molar mass. Activity calls are given as the source filed them. No cut-off for these calls is given here.

Columns and labels:
Trypanosoma cruzi [1] = assay: Antiparasitic activity against epimastigotes of Trypanosoma cruzi assessed as inhibition of parasite proliferation; format: functional, organism-based
Trypanosoma cruzi [2] = assay: Antiparasitic activity against epimastigotes of Trypanosoma cruzi assessed as inhibition of parasite proliferation at 1 to 10 ug/ml; format: functional, organism-based
[3] = Trypanosoma cruzi, read-out: IC50

COC(=O)CC[C@@H]1[C@@]2(C[C@@H](c3ccoc3)OC2=O)[C@H](C)CC[C@@]12OC2(C)C
IC50 (Trypanosoma cruzi [1]): Not Active

C=C(C)[C@]12CC[C@@H](C)[C@]3(C[C@@H](c4ccoc4)OC3=O)[C@H]1CCC(=O)O2
IC50 (Trypanosoma cruzi [1]; [3]): 5 µg/mL (≈ 14.5 µM)

CC(C)=C1CC[C@@H](C)[C@]2(C[C@@H](c3ccoc3)OC2=O)[C@H]1CCC1=CC(=O)C=CC1=O
IC50 (Trypanosoma cruzi [1]; [3]): 2 µg/mL (≈ 4.9 µM)

O=C(Cn1ccnc1[N+](=O)[O-])NCc1ccccc1 [BENZNIDAZOLE]
IC50 (Trypanosoma cruzi [1]; [3]): 2.5 µg/mL (≈ 9.61 µM)

CC(C)=C1CC[C@@H](C)[C@]2(C[C@@H](c3ccoc3)OC2=O)[C@H]1CCNC(=O)N=[N+]=[N-]
IC50 (Trypanosoma cruzi [1]; [3]): 4 µg/mL (≈ 10.4 µM)

CC(C)=C1CC[C@@H](C)[C@]2(C[C@@H](c3ccoc3)OC2=O)[C@H]1CCNC(=O)OC(C)(C)C
IC50 (Trypanosoma cruzi [1]; [3]): 2 µg/mL (≈ 4.79 µM)

CC(C)=C1CC[C@@H](C)[C@]2(C[C@@H](c3ccoc3)OC2=O)[C@H]1CCC(=O)OC(C)(C)C
IC50 (Trypanosoma cruzi [1]): Not Active

CC(C)=C1CC[C@@H](C)[C@]2(C[C@@H](c3ccoc3)OC2=O)[C@H]1CCC(=O)O
IC50 (Trypanosoma cruzi [1]; [3]): 2 µg/mL (≈ 5.77 µM) | inhibition (Trypanosoma cruzi [2]): Active

CC(C)=C1CC[C@@H](C)[C@]2(C[C@@H](c3ccoc3)OC2=O)[C@H]1CCNC(=O)NCC[C@H]1C(=C(C)C)CC[C@@H](C)[C@]12C[C@@H](c1ccoc1)OC2=O
IC50 (Trypanosoma cruzi [1]; [3]): 5 µg/mL (≈ 7.57 µM)

CC(C)=C1CC[C@@H](C)[C@]2(C[C@@H](c3ccoc3)OC2=O)[C@H]1CCN=C=O
IC50 (Trypanosoma cruzi [1]): Not Active

CC(C)=C1CC[C@@H](C)[C@]2(C[C@@H](c3ccoc3)OC2=O)[C@H]1CCc1cc(O)ccc1O
IC50 (Trypanosoma cruzi [1]; [3]): 7 µg/mL (≈ 17.1 µM)
